Data taken from DBAASP.
≈ marks a conversion by molar mass, not a printed value.

Legend:
Assay in all cases: ≥ marks a high value that may be exact or a test limit, other limits are often not marked, values filed in µg/mL are converted to µM
[1] = test system: Bacillus megaterium KCTC 1096
[2] = test system: Bacillus subtilis KCTC 1918
[3] = test system: Escherichia coli KCTC 1682
Proteus vulgaris = test system: Proteus vulgaris
[4] = test system: Pseudomonas aeruginosa KCTC 1637
[5] = test system: Staphylococcus aureus KCTC 1621
[6] = test system: Bacillus subtilis ATCC 6633
[7] = test system: Staphylococcus aureus FDA 209P
[8] = test system: Escherichia coli ATCC 11219
[9] = test system: Klebsiella pneumoniae ATCC 10031
[10] = test system: Pseudomonas aeruginosa ATCC 13388
[11] = test system: Salmonella enterica subsp. enterica serovar Typhimurium ATCC 14028
[12] = test system: Staphylococcus aureus ATCC 6538
Bacillus megaterium Bm11 = test system: Bacillus megaterium Bm11
Escherichia coli ML-35 = test system: Escherichia coli ML-35
[13] = test system: Staphylococcus aureus ATCC 25923
[14] = test system: Erwinia amylovora PMV 6076
[15] = test system: Pseudomonas syringae pv. syringae EPS 94
[16] = test system: Xanthomonas campestris pv. Vesicatoria 2133-2

For CC[C@H](C)[C@H](NC(=O)[C@H](CCCCN)NC(=O)[C@H](CCCCN)NC(=O)[C@H](Cc1ccccc1)NC(=O)[C@H](CC(C)C)NC(=O)[C@H](CCCCN)NC(=O)[C@@H](N)Cc1ccccc1)C(=O)N1CCC[C@H]1C(=O)N[C@@H](CCCCN)C(=O)N[C@@H](Cc1ccccc1)C(=O)N[C@@H](CC(C)C)C(=O)N[C@@H](Cc1cnc[nH]1)C(=O)N[C@@H](CC(C)C)C(=O)N[C@@H](C)C(=O)N[C@@H](CCCCN)C(=O)N[C@@H](CCCCN)C(=O)N[C@@H](Cc1ccccc1)C(N)=O [FKLFKKIPKFLHLAKKF], the MIC [1] was 0.78 µM (≈ 1.66 µg/mL), the MIC [2] was 0.78 µM (≈ 1.66 µg/mL) and the MIC [3] was 6.26 µM (≈ 13.4 µg/mL). It also gave an MIC (Proteus vulgaris) of 1.56 µM (≈ 3.33 µg/mL), an MIC [4] of 1.56 µM (≈ 3.33 µg/mL) and an MIC [5] of 3.12 µM (≈ 6.66 µg/mL).

Work on CC(C)C[C@H](NC(=O)[C@H](CCC(N)=O)NC(=O)[C@H](CCC(N)=O)NC(=O)[C@H](C)NC(=O)CNC(=O)[C@H](C)NC(=O)[C@H](CCCCN)NC(=O)CNC(=O)[C@@H](NC(=O)[C@H](CO)NC(=O)[C@H](CCCCN)NC(=O)[C@H](CC(C)C)NC(=O)[C@H](CC(C)C)NC(=O)[C@H](Cc1ccc(O)cc1)NC(=O)[C@H](CCCCN)NC(=O)[C@H](C)NC(=O)CNC(=O)[C@H](C)NC(=O)[C@H](CCCCN)NC(=O)[C@H](Cc1ccccc1)NC(=O)[C@H](CC(C)C)NC(=O)[C@H](CO)NC(=O)[C@H](CO)NC(=O)[C@H](Cc1ccccc1)NC(=O)CN)C(C)C)C(=O)N[C@@H](C)C(=O)N[C@H]1CSSC[C@@H](C(=O)N[C@@H](C)C(=O)O)NC(=O)[C@H](CC(N)=O)NC(=O)[C@H](CC(N)=O)NC(=O)[C@H](C)NC(=O)[C@H](C)NC(=O)[C@H](CCCCN)NC1=O [GFSSLFKAGAKYLLKSVGKAGAQQLACKAANNCA] yielded an MIC [6] of 18.7 µM (≈ 64 µg/mL) and an MIC [7] of 4.36 µM (≈ 14.9 µg/mL).

Work on CC[C@H](C)[C@H](NC(=O)CN)C(=O)N[C@@H](Cc1cnc[nH]1)C(=O)N[C@@H](CCCCN)C(=O)N[C@H](C(=O)N[C@@H](CC(C)C)C(=O)N[C@@H](CCCCN)C(=O)N[C@@H](Cc1ccc(O)cc1)C(=O)NCC(=O)N[C@@H](CCCCN)C(=O)N1CCC[C@H]1C(=O)N[C@@H](CO)C(N)=O)[C@@H](C)CC [GIHKILKYGKPS] yielded an MIC [8] of 5 µM (≈ 6.7 µg/mL), an MIC [9] of 5 µM (≈ 6.7 µg/mL) and an MIC [10] of 20 µM (≈ 26.8 µg/mL). It also gave an MIC [11] of 10 µM (≈ 13.4 µg/mL) and an MIC [12] of 10 µM (≈ 13.4 µg/mL).

With CC[C@H](C)[C@H](NC(=O)CN)C(=O)N[C@@H](CCCCN)C(=O)N[C@@H](CCCCN)C(=O)N[C@H](C(=O)N[C@@H](CC(C)C)C(=O)N[C@@H](CCCCN)C(=O)N[C@@H](Cc1ccc(O)cc1)C(=O)NCC(=O)N[C@@H](CCCCN)C(=O)N[C@@H](CCCCN)C(=O)N[C@@H](CO)C(N)=O)[C@@H](C)CC [GIKKILKYGKKS] the MIC [8] was 20 µM (≈ 27.2 µg/mL), the MIC [9] was at least 50 µM and the MIC [10] was at least 50 µM. For the same compound, the MIC [11] was 20 µM (≈ 27.2 µg/mL) and the MIC [12] was 5 µM (≈ 6.81 µg/mL).

CC[C@H](C)[C@H](NC(=O)[C@H](CCCCN)NC(=O)[C@H](CCCCN)NC(=O)[C@H](CCCN=C(N)N)NC(=O)[C@H](CC(C)C)NC(=O)[C@H](CCCN=C(N)N)NC(=O)[C@H](CCCN=C(N)N)NC(=O)[C@H](CC(C)C)NC(=O)[C@H](CC(C)C)NC(=O)CN)C(=O)NCC(=O)N[C@@H](CCC(=O)O)C(=O)N[C@H](C(=O)N[C@@H](Cc1ccccc1)C(=O)N[C@@H](CCCCN)C(=O)N[C@@H](CCCCN)C(=O)N[C@@H](Cc1ccc(O)cc1)C(=O)NCC(=O)O)[C@@H](C)CC [GLLRRLRKKIGEIFKKYG] showed an MIC (Bacillus megaterium Bm11) of 4 µM (≈ 8.7 µg/mL), an MIC (Escherichia coli ML-35) of 2 µM (≈ 4.35 µg/mL) and an MIC [11] of 1 µM (≈ 2.18 µg/mL). For the same compound, the MIC [13] was 4 µM (≈ 8.7 µg/mL).

With CC(C)C[C@H](NC(=O)[C@H](Cc1cnc[nH]1)NC(=O)[C@H](CCC(=O)O)NC(=O)[C@H](Cc1c[nH]c2ccccc12)NC(=O)[C@H](CC(=O)O)NC(=O)[C@H](CCCCN)NC(=O)[C@H](CC(C)C)NC(=O)[C@H](Cc1cnc[nH]1)NC(=O)[C@H](CCC(=O)O)NC(=O)[C@H](Cc1c[nH]c2ccccc12)NC(=O)[C@H](CC(=O)O)NC(=O)[C@H](CCCCN)NC(=O)[C@H](CC(C)C)NC(=O)[C@H](Cc1cnc[nH]1)NC(=O)[C@H](CCC(=O)O)NC(=O)[C@H](Cc1c[nH]c2ccccc12)NC(=O)[C@H](CC(=O)O)NC(=O)[C@@H](N)CCCCN)C(=O)O [KDWEHLKDWEHLKDWEHL] the MIC [14] was at least 100 µM, the MIC [15] was at least 100 µM and the MIC [16] was at least 100 µM.
